Results reported in US5057523A, “Dipeptide quinolone derivatives” (Abbott Laboratories, priority 1989, dated 1991).
≈ marks a conversion by molar mass, not a printed value. Where a name gives a salt, the structure may show the parent alone.

Assays:
[1] = test system: MICROCOCCUS LUTEUS ATCC 9341; assay: In vitro antibacterial activity, agar dilution MIC (BHIA); format: cell-based; conditions: BHI agar
[2] = test system: ENTEROCOCCUS FAECIUM ATCC 8043; assay: as above; format: cell-based; conditions: ENTEROCOCCUS FAECIUM ATCC 8043; BHI agar
[3] = test system: STREPTOCOCCUS BOVIS A5169; assay: as above; format: cell-based; conditions: STREPTOCOCCUS BOVIS A5169; BHI agar
[4] = test system: STREPTOCOCCUS AGALACTIAE CMX 508; assay: as above; format: cell-based; conditions: STREPTOCOCCUS AGALACTIAE CMX 508; BHI agar
[5] = test system: STREPTOCOCCUS PYOGENES EES61; assay: as above; format: cell-based; conditions: STREPTOCOCCUS PYOGENES EES61; BHI agar
[6] = test system: STREPTOCOCCUS PYOGENES 2548 INDUC; assay: as above; format: cell-based; conditions: BHI agar
[7] = test system: ESCHERICHIA COLI JUHL; assay: as above; format: cell-based; conditions: BHI agar
[8] = test system: ESCHERICHIA COLI DC-2; assay: as above; format: cell-based; conditions: BHI agar
Description: (§1) The MIC results are in μg/ml.

[9] = test system: ESCHERICHIA COLI H560; assay: as above; format: cell-based; conditions: BHI agar
Description: as §1

[10] = test system: ESCHERICHIA COLI SS; assay: as above; format: cell-based; conditions: BHI agar
Description: as §1

[11] = test system: ESCHERICHIA COLI KNK 437; assay: as above; format: cell-based; conditions: BHI agar
[12] = test system: PROVIDENCIA STUARTII CMX 640; assay: as above; format: cell-based; conditions: BHI agar
[13] = test system: PSEUDOMONAS AERUGINOSA BMH10; assay: as above; format: cell-based; conditions: BHI agar
[14] = test system: PSEUDOMONAS AERUGINOSA A5007; assay: as above; format: cell-based; conditions: BHI agar
[15] = test system: PSEUDOMONAS AERUGINOSA K799/WT; assay: as above; format: cell-based; conditions: BHI agar
[16] = test system: PSEUDOMONAS CEPACIA 2961; assay: as above; format: cell-based; conditions: BHI agar
[17] = test system: E. Coli Juhl; assay: Acute mouse protection test; format: in vivo; conditions: mice infected intraperitoneally with E. Coli JUHL, dosed at 1 and 5 hours post-infection
[18] = test system: Stap. Aureus NCTC 10649; assay: Acute mouse protection test; format: in vivo; conditions: mice infected intraperitoneally with Stap. Aureus NCTC 10649, dosed at 1 and 5 hours post-infection
[19] = test system: Stap. Aureus CMX 553; assay: Second in vitro test, MIC in Brain Heart Infusion Broth (BHIB)
Description: (§2) The in vitro antibacterial activity of the test compounds was determined by conventional agar dilution procedures. The organisms were grown overnight in brain-heart infusion (BHI) broth (Difco 0037-01-6) at 36° C. Twofold dilutions of the stock solution (2000 mcg/mL) of the test compound were made in BHI agar to obtain a test concentration ranging from 200 to 0.005 mcg/mL. The plate was inoculated with approximately 10^4 organisms. It was then incubated at 36° C. for 18 h.

[20] = test system: E. Coli Juhl; assay: as above
Description: as §2

[21] = test system: Ps. Aeruginosa A5007; assay: as above
Description: as §2

[22] = test system: Strep pyogenes EES 61; assay: as above
Description: as §2

[23] = test system: P. Aeruginosa A5007; assay: Acute mouse protection test; format: in vivo; conditions: mice infected intraperitoneally with P. Aeruginosa A5007, dosed at 1 and 5 hours post-infection

| SMILES | Oral (ED50) [17] [mg/kg/day] | Oral (ED50) [18] [mg/kg/day] | MIC [19] [µg/mL] | MIC [20] [µg/mL] | MIC [21] [µg/mL] | MIC [22] [µg/mL] | Oral (ED50) [23] [mg/kg/day] | other results |
| --- | --- | --- | --- | --- | --- | --- | --- | --- |
| NC(Cc1ccccc1)C(=O)NC1CCN(c2nc3c(cc2F)c(=O)c(C(=O)O)cn3-c2ccc(F)cc2F)C1 (stereo not shown) [Example 5] | 3.5 | 3.6 |  |  |  |  |  | MIC [1]: 25 µg/mL (≈ 45.3 µM); MIC [2]: 3.1 µg/mL (≈ 5.62 µM); MIC [3]: 6.2 µg/mL (≈ 11.2 µM); MIC [4]: 3.1 µg/mL (≈ 5.62 µM); MIC [5]: 3.1 µg/mL (≈ 5.62 µM); MIC [6]: .78 µg/mL (≈ 1.41 µM); MIC [7]: 3.1 µg/mL (≈ 5.62 µM); MIC [8]: 50 µg/mL (≈ 90.7 µM); MIC [9]: 3.1 µg/mL (≈ 5.62 µM); MIC [10]: .1 µg/mL (≈ 0.181 µM); MIC [11]: 100 µg/mL (≈ 181 µM); MIC [12]: > 100 µg/mL; MIC [13]: 25 µg/mL (≈ 45.3 µM); MIC [14]: 50 µg/mL (≈ 90.7 µM); MIC [15]: 25 µg/mL (≈ 45.3 µM); MIC [16]: > 100 µg/mL |
| CC(N)C(=O)NC1CCN(c2nc3c(cc2F)c(=O)c(C(=O)O)cn3-c2ccc(F)cc2F)C1 (stereo not shown) [Example 17] | 2.0 | 1.7 | 2.0 (≈ 4.21 µM) | 0.5 (≈ 1.05 µM) | 16 (≈ 33.7 µM) |  |  |  |
| CCC[C@H](N)C(=O)NC1CCN(c2nc3c(cc2F)c(=O)c(C(=O)O)cn3CC)C1 (stereo partly shown) [Example 26ff] |  |  |  |  |  | 6.2 (≈ 14.8 µM) |  |  |
| O=C(O)c1cn(-c2ccc(F)cc2F)c2nc(N3CCC(NC(=O)C4CCCN4)C3)c(F)cc2c1=O (stereo not shown) [Example 28] |  | 3.2 |  |  |  |  |  |  |
| CSCCC(N)C(=O)NC1CCN(c2nc3c(cc2F)c(=O)c(C(=O)O)cn3-c2ccc(F)cc2F)C1 (stereo not shown) [Example 23] |  | 1.5 |  |  | 5.0 (≈ 9.34 µM) |  |  |  |
| CCCC(N)C(=O)NC1CCN(c2nc3c(cc2F)c(=O)c(C(=O)O)cn3-c2ccc(F)cc2)C1 (stereo not shown) [Example 26i] |  | 5.3 |  | 0.39 (≈ 0.803 µM) | 6.2 (≈ 12.8 µM) |  |  |  |
| Cl.Cl.NCCCC[C@H](N)C(=O)NC1CCN(c2nc3c(cc2F)c(=O)c(C(=O)O)cn3-c2ccc(F)cc2F)C1 (stereo partly shown) [Example 46, 7-(3-Lys-amino-1-pyrrolidinyl)-1-(2,4-difluorophenyl)-6-fluoro-1,4-dihydro-4-oxo-1,8-naphthyridine-3-carboxylic acid dihydrochloride] |  | 3.4 | 100 |  | > 100 | 100 |  |  |
| CCCC(N)C(=O)NC1CCN(c2cc3c(cc2F)c(=O)c(C(=O)O)cn3-c2ccc(F)cc2)C1 (stereo not shown) [Example 26h] |  | 4.0 | 0.78 (≈ 1.61 µM) | 0.78 (≈ 1.61 µM) | 6.2 (≈ 12.8 µM) |  |  |  |
| CC(N)C(=O)NC(Cc1ccccc1)C(=O)NC1CCN(c2nc3c(cc2F)c(=O)c(C(=O)O)cn3-c2ccc(F)cc2F)C1 (stereo not shown) [Example 11] |  | 2.0 | 16.0 (≈ 25.7 µM) | 16 (≈ 25.7 µM) |  |  |  |  |
| NC(Cc1ccc(O)cc1)C(=O)NC1CCN(c2nc3c(cc2F)c(=O)c(C(=O)O)cn3-c2ccc(F)cc2F)C1 (stereo not shown) [Example 13] |  | 1.7 |  |  | 50 (≈ 88.1 µM) |  |  |  |
| Cl.N[C@@H](CC(=O)O)C(=O)NC1CCN(c2nc3c(cc2F)c(=O)c(C(=O)O)cn3-c2ccc(F)cc2F)C1 (stereo partly drawn) [Example 45, 7-(3-L-Asp-amino-1-pyrrolidinyl)-1-(2,4-difluorophenyl)-6-fluoro-1,4-dihyd ro-4-oxo-1,8-naphthyridine-3-carboxylic acid hydrochloride] |  | 1.5 |  |  |  |  | 13.0 |  |
| CC(C)CC(N)C(=O)NC1CCN(c2nc3c(cc2F)c(=O)c(C(=O)O)cn3-c2ccc(F)cc2F)C1 (stereo not shown) [Example 21] |  | 2.4 |  |  | 25 (≈ 48.3 µM) | 6.2 (≈ 12 µM) |  |  |
| NCC(=O)NC1CCN(c2nc3c(cc2F)c(=O)c(C(=O)O)cn3-c2ccc(F)cc2F)C1 (stereo not shown) [Example 7] | 5.0 | 2.4 |  | 0.78 (≈ 1.69 µM) |  | 0.78 (≈ 1.69 µM) |  |  |
| NC(=O)C[C@H](N)C(=O)NC1CCN(c2nc3c(cc2F)c(=O)c(C(=O)O)cn3-c2ccc(F)cc2F)C1 (stereo partly drawn) [Example 41, 7-(3-L-Asparagine-amino-1-pyrrolidinyl)-1-(2,4-6-fluoro-1,4-dihydro-4-oxo-1,8-difluorophenyl)-3-carboxylic acid hydrochloride] |  | 2.9 |  |  |  |  |  |  |
| CC(N)C(=O)NC1CCN(c2c(F)cc3c(=O)c(C(=O)O)cn(C4CC4)c3c2F)C1 (stereo not shown) [Example 26s] | 1.8 | 4.8 |  |  |  |  | 5.0 |  |
| CCC[C@H](NC(=O)CNC(=O)CN)C(=O)NC1CCN(c2nc3c(cc2F)c(=O)c(C(=O)O)cn3-c2ccc(F)cc2F)C1 (stereo partly shown) [Example 30] |  | 2.2 | 25 (≈ 40.5 µM) | 25 (≈ 40.5 µM) | > 100 | 100 (≈ 162 µM) | 3.3 |  |
| CCCC(N)C(=O)NC1CCN(c2cc3c(cc2F)c(=O)c(C(=O)O)cn3C2CC2)C1 (stereo not shown) [Example 26l] | 9.4 |  |  |  |  |  |  |  |
| CCCC(N)C(=O)NC1CCN(c2cc3c(cc2F)c(=O)c(C(=O)O)cn3-c2ccc(F)cc2F)C1 (stereo not shown) [Example 26b] |  |  | 0.39 (≈ 0.776 µM) | 0.78 (≈ 1.55 µM) | 6.2 (≈ 12.3 µM) |  |  |  |
| Cl.NCC(=O)N[C@@H](Cc1ccccc1)C(=O)NC1CCN(c2cc3c(cc2F)c(=O)c(C(=O)O)cn3-c2ccc(F)cc2F)C1 (stereo partly drawn) [Example 26jj, 1-(2,4-Difluorophenyl)-6-Fluoro-7-(3-Gly-L-Phe -Amino 1-Pyrrolidinyl)-1,4-Dihydro-4-Oxo-Quinoline-3-Carboxylic Acid Hydrochloride] |  |  | 16 | 16 | 64 | 32 |  |  |
| CC(C)CC(N)C(=O)NC1CCN(c2nc3c(cc2F)c(=O)c(C(=O)O)cn3C2CC2)C1 (stereo not shown) [Example 26o] | 1.2 | 4.0 | 0.39 (≈ 0.875 µM) | 0.2 (≈ 0.449 µM) |  | 3.1 (≈ 6.96 µM) | 6.2 |  |
| CS(=O)(=O)CC[C@H](N)C(=O)NC1CCN(c2nc3c(cc2F)c(=O)c(C(=O)O)cn3-c2ccc(F)cc2F)C1.Cl (stereo partly drawn) [Example 31c, 7-[3 L-Methioninesulfone Amino-1-Pyrrolidinyl]-1-(2,4-Difluorophenyl)-6-Fluoro-1,4-Dihydro-4-Oxo 1,8-Naphthyridine 3-Carboxylic Acid Hydrochloride] | 1.8 | 1.8 | 25 | 12.5 | > 100 | 25 | 7.8 |  |
| Cl.Cl.N[C@@H](Cc1c[nH]cn1)C(=O)NC1CCN(c2nc3c(cc2F)c(=O)c(C(=O)O)cn3-c2ccc(F)cc2F)C1 (stereo partly drawn) [Example 44c, 7-[3-L-Histidine-Amino-1-Pyrrolidinyl)-1-(2,4-Difluorophenyl)-6-Fluoro-1,4-Dihydro-4-oxo-1,8-Naphthyridine-3-Carboxylic Acid Dihydrochloride] |  | 4.0 | 16 | 64 | > 64 | 32 | 51.3 |  |
| CCCC(N)C(=O)NC1CCN(c2nc3c(cc2F)c(=O)c(C(=O)O)cn3C2CC2)C1 (stereo not shown) [Example 26p] |  | 4.5 | 0.39 (≈ 0.904 µM) | 0.39 (≈ 0.904 µM) |  | 3.1 (≈ 7.18 µM) | 9.1 |  |
| CCCC(N)C(=O)NC1CCN(c2c(F)cc3c(=O)c(C(=O)O)cn(C4CC4)c3c2F)C1 (stereo not shown) [Example 26r] | 2.3 | 3.0 |  |  |  |  | 7.3 |  |
